target: T1, GLP-1R (Homo sapiens, UniProt P43220); test: EC20 GLP-1(9-36) PAM cAMP assay: dose response of compound in the presence of fixed concentration of GLP-1(9-36); type: cell-based; conditions: GLP-1R CRE-bla CHO-K1 cells, compound dose response with fixed concentration of GLP-1(9-36), read-out: EC20 GLP-1(9-36) PAM EC50
T1 construct: host or cells: GLP-1R CRE-bla CHO-K1 cells
In short: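 GLP-1R CRE-bla CHO-K1 cells treated 30 min at 37 °C with 12-point compound dose response plus fixed EC20 GLP-1(9-36), with IBMX, in HBSS/HEPES/0.1% BSA pH 7.4. Total cAMP measured by luminescent detection against standard curve; EC50 and Emax from non-linear regression.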

T1 sequence (P43220 24-463): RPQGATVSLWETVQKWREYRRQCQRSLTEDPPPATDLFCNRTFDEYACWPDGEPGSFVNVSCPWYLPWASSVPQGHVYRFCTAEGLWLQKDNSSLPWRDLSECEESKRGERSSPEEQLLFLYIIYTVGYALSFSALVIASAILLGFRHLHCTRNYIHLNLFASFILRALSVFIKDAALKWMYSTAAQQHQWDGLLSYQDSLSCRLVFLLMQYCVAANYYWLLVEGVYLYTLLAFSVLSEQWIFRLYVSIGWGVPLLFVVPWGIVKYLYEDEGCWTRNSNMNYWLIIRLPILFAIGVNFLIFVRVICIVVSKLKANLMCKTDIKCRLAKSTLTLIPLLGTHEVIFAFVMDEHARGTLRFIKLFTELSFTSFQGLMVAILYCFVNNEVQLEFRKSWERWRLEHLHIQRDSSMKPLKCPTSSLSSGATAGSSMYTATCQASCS
T1 sequence (P01275 100-127 partner limits assumed): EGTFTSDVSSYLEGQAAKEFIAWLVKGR

Row | EC50 [nM] | Structure (SMILES)
1 | < 800 | CCCc1ccc(-c2ccc(-c3cnc(-c4ccc(C[C@H](NC(=O)c5ccc(C6CC6)s5)C(=O)N5CC(C(=O)O)C5)cc4)nc3)c(F)c2)cc1 [Compound 1406]
2 | 800 to 2500 | Cc1ccc(/C=C/c2cnc(-c3ccc(C[C@H](NC(=O)c4ccc(C(C)(C)C)s4)C(=O)N[C@H](C)C(=O)O)cc3)nc2)cc1 [Compound 1264]
3 | < 800 | CC(C)(C)c1ccc(C(=O)N[C@@H](Cc2ccc(-c3ncc(-c4ccc(-c5ccc(F)cc5)cc4F)cn3)cc2)C(=O)N2CC(C(=O)O)C2)s1 [Compound 1213]
4 | < 800 | CC[C@H]1CC[C@H](c2ccc(-c3cnc(-c4ccc(C[C@H](NC(=O)c5ccc(C(C)(C)C#N)s5)C(=O)N5CC(C(=O)O)C5)cc4)nc3)cc2)CC1 [Compound 1339]
5 | < 800 | CCC[C@H]1CC[C@H](C2CCN(c3cnc(-c4ccc(C[C@H](NC(=O)c5ccc(C(C)(C)C)s5)C(=O)N[C@H](CN)C(=O)O)cc4)nc3)CC2)CC1 [Compound 1473]
6 | 2500 to 5000 | C[C@@H](NC(=O)[C@H](Cc1ccc(-c2ncc(/C=C/c3ccsc3)cn2)cc1)NC(=O)c1ccc(C(C)(C)C)s1)C(=O)O [Compound 1257]
7 | 5000 to 10000 | C[C@@H](NC(=O)[C@H](Cc1ccc(-c2ncc(/C=C/c3cc(F)cc(F)c3)cn2)cc1)NC(=O)c1ccc(C(C)(C)C)s1)C(=O)O [Compound 1256]
8 | 800 to 2500 | CCOc1ccc(-c2ccc(-c3cnc(-c4ccc(C[C@H](NC(=O)c5ccc(C(C)(C)C)s5)C(=O)N[C@H](C)C(=O)O)cc4)nc3)cc2)cc1 [Compound 1287]
9 | 800 to 2500 | CCc1ccc(/C=C\c2cnc(-c3ccc(C[C@H](NC(=O)c4ccc(C(C)(C)C)s4)C(=O)N[C@H](C)C(=O)O)cc3)nc2)cc1 [Compound 1277]
10 | 800 to 2500 | CCCCCOc1ccc(-c2ccc(-c3cnc(-c4ccc(C[C@H](NC(=O)c5ccc(C(C)(C)C)s5)C(=O)N[C@H](C)C(=O)O)cc4)nc3)cc2)cc1 [Compound 1309]
11 | < 800 | CCC[C@H]1CC[C@H](C2CC(=O)N(c3cnc(-c4ccc(C[C@H](NC(=O)c5ccc(C(C)(C)C)s5)C(=O)N5CC(C(=O)O)C5)cc4)nc3)C(=O)C2)CC1 [Compound 1512]
12 | 2500 to 5000 | CC(C)(C)c1ccc(C(=O)N[C@@H](Cc2ccc(-c3ncc(-c4ccc(-c5ccc(F)cc5)cc4)cn3)cc2)C(=O)O)s1 [Compound 1354]
13 | < 800 | CCC[C@H]1CC[C@H](c2ccc(-c3cnc(-c4ccc(C[C@H](NC(=O)c5ccc(C(C)(C)C)s5)C(=O)O)cc4)nc3)cc2)CC1 [Compound 1346]
14 | 800 to 2500 | CCc1ccc(C(=O)N[C@@H](Cc2ccc(-c3ncc(-c4ccc([C@H]5CC[C@H](CC)CC5)cc4)cn3)cc2)C(=O)O)cc1 [Compound 1370]
15 | 800 to 2500 | CC(C)(C)c1ccc(C(=O)NC(Cc2ccc(-c3ncc(N4CCC(c5ccccc5F)CC4)cn3)cc2)C(=O)N2CC(C(=O)O)C2)s1 (stereo not drawn) [Compound 1491]
16 | 800 to 2500 | CCCc1ccc(C(=O)N[C@@H](Cc2ccc(-c3ncc(-c4ccc(OCCCC(C)C)cc4)cn3)cc2)C(=O)N2CC(C(=O)O)C2)cc1 [Compound 1232]

same assay, conditions: dose response of compound in presence of fixed concentration of GLP-1(9-36), GLP-1R CRE-bla CHO-K1 cells, read-out: EC20 GLP-1(9-36) PAM EC50

Row | Structure (SMILES) | EC50 [nM]
17 | CCCCCCCOc1ccc(-c2cnc(-c3ccc(C[C@H](NC(=O)c4ccc(C(C)(C)C)s4)C(=O)N[C@H]4C[C@H](C(=O)O)C4)cc3)nc2)cc1 [Compound 875] | 800 to 2500
18 | Cc1ccc(/C=C/c2cnc(-c3ccc(C[C@H](NC(=O)c4ccc(C(C)(C)C)s4)C(=O)N4CC[C@H](C(=O)O)C4)cc3)nc2)cc1 [Compound 1085] | 800 to 2500
19 | CCCCCCCOc1ccc(-c2ccc(-c3ccc(C[C@H](NC(=O)c4ccc(C(C)(C)C)s4)C(=O)N[C@H](C)C(=O)O)cc3)nc2)cc1 [Compound 811] | 800 to 2500
20 | CCCCCCCOc1ccc(-c2cnc(-c3ccc(C[C@H](NC(=O)c4ccc(C(C)(C)C)s4)C(=O)NCC4(C(=O)O)CCNCC4)cc3)nc2)cc1 [Compound 606] | 800 to 2500
21 | CCCCCCCOc1ccc(-c2cnc(-c3ccc(C[C@H](NC(=O)c4ccc(C(C)(C)C)cc4)C(=O)NC(C(=O)O)C(C)c4ccccc4)cc3)nc2)cc1 (stereo partly drawn) [Compound 574] | 800 to 2500
22 | CCCCCCCOc1ccc(-c2cnc(-c3ccc(C[C@H](NC(=O)c4ccc(C(C)(C)C)s4)C(=O)N4CCCNCC4)cc3)nc2)cc1 [Compound 966] | 5000 to 10000
23 | CCCCCCc1nc(-c2cnc(-c3ccc(C[C@H](NC(=O)c4ccc(C(C)(C)C)cc4)C(=O)O)cc3)nc2)no1 [Compound 248, (S)-2-(4-(tert-butyl)benzamido)-3-(4-(5-(5-hexyl-1,2,4-oxadiazol-3-yl)pyrimidin-2-yl)phenyl)propanoic acid] | 2500 to 5000
24 | CC(C)CCSc1ccc(-c2cnc(-c3ccc(C[C@H](NC(=O)c4ccc(C(C)(C)C)cc4)C(=O)NCCC(=O)O)cc3)nc2)cc1 [Compound 681] | 5000 to 10000
25 | CCCOc1ccc(-c2cnc(-c3ccc(C[C@H](NC(=O)c4ccc(C(C)(C)C)s4)C(=O)N[C@H](C)C(=O)O)cc3)nc2)cc1C [Compound 1005] | 800 to 2500
26 | CCCCCCCOc1ccc(-c2cnc(-c3ccc(C[C@H](NC(=O)c4ncc(C(C)C)s4)C(=O)O)cc3)nc2)cc1 [Compound 148] | 800 to 2500
27 | CC(C)(C)c1ccc(C(=O)N[C@@H](Cc2ccc(-c3ncc(-c4ccc(OC5CCCCC5)cc4)cn3)cc2)C(=O)NC(C(=O)O)C(O)c2ccccc2)s1 (stereo partly drawn) [Compound 938] | 5000 to 10000
28 | CCCCCCCOc1ccc(-c2cnc(-c3ccc(C[C@H](NC(=O)c4ccc(C(C)(C)C)s4)C(=O)N[C@@H](C(=O)O)C4CC4)cc3)nc2)cc1 [Compound 404] | < 800
29 | CCCCCCCOc1ccc(-c2cnc(-c3ccc(C[C@H](NC(=O)c4ccc(CC)cn4)C(=O)N4CC[C@H](C(=O)O)C4)cc3)nc2)cc1 [Compound 1098] | 2500 to 5000
30 | Cc1ccc(/C=C/c2cnc(-c3ccc(C[C@H](NC(=O)c4ccc(C(C)(C)C)s4)C(=O)N4CC(C(=O)O)C4)cc3)nc2)cc1 [Compound 1091] | 800 to 2500
31 | Cc1cc(-c2cnc(-c3ccc(C[C@H](NC(=O)c4ccc(C(C)(C)C)s4)C(=O)N[C@H](C)C(=O)O)cc3)nc2)ccc1OC(C)C [Compound 1007] | 800 to 2500
32 | CCOc1ccc(-c2cnc(-c3ccc(C[C@H](NC(=O)c4ccc(C(C)(C)C)cc4)C(=O)N[C@H](C)C(=O)O)cc3)nc2)cc1 [Compound 721] | 800 to 2500
33 | CC(C)(C)c1ccc(C(=O)N[C@@H](Cc2ccc(-c3ncc(-c4nc(CC5CCCCC5)no4)cn3)cc2)C(=O)NCCC(=O)O)cc1 [Compound 747] | 2500 to 5000
34 | CC(C)COc1ccc(-c2cnc(-c3ccc(C[C@H](NC(=O)c4ccc(C(C)(C)C)cc4)C(=O)NCCC(=O)O)cc3)nc2)cc1 [Compound 685] | 2500 to 5000
35 | CCCCCCCOc1ccc(-c2cnc(-c3ccc(C[C@H](NC(=O)c4ccc(C(C)(C)C)s4)C(=O)NCCCN(CC)CC)cc3)nc2)cc1 [Compound 970] | 2500 to 5000
36 | CCCCCCCOc1ccc(-c2cnc(-c3ccc(C[C@H](NC(=O)c4ccc(C(C)(C)C)cc4)C(=O)NCCC(=O)O)cc3)nc2)c(Cl)c1 [Compound 701] | 2500 to 5000
37 | CCCCCOc1ccc(-c2cnc(-c3ccc(C[C@H](NC(=O)c4ccc(C(C)(C)C)s4)C(=O)N[C@H](C)C(=O)O)cc3)nc2)cc1 [Compound 734] | 800 to 2500
38 | CCCCCCCOc1ccc(N2CCN(c3ccc(C[C@H](NC(=O)c4ccc(C(C)(C)C)cc4)C(=O)N[C@H](C)C(=O)O)cc3)CC2)cc1 [Compound 804] | 800 to 2500
39 | CCCCCCCOc1ccc2nc(-c3ccc(C[C@H](NC(=O)c4ccc(C(C)(C)C)cc4)C(=O)O)cc3)ccc2c1 [Compound 671, (S)-2-(4-(tert-butyl)benzamido)-3-(4-(6-(heptyloxy)quinolin-2-yl)phenyl)propanoic acid] | 2500 to 5000
40 | CCCCC(=O)c1ccc(-c2cnc(-c3ccc(C[C@H](NC(=O)c4ccc(C(C)(C)C)s4)C(=O)N[C@H](C)C(=O)O)cc3)nc2)c(C)c1 [Compound 1014] | 5000 to 10000
41 | CCCCCCCOc1ccc(-c2cnc(-c3ccc(C[C@H](NC(=O)c4ccc(C(C)(C)C)s4)C(=O)N[C@H](C(=O)O)[C@@H](C)O)cc3)nc2)cc1 [Compound 645] | < 800
42 | CCCCCCCOc1ccc(-c2cnc(-c3ccc(C[C@H](NC(=O)c4ccc(C(C)(C)C)s4)C(=O)N4CC(C)C(C(=O)O)C4)cc3)nc2)cc1 (stereo partly drawn) [Compound 631] | 800 to 2500
43 | CCCCCCCOc1ccc(-c2cnc(-c3ccc(C[C@H](NC(=O)c4ccc(C(C)(C)C)cc4)C(=O)NC(Cc4ccccc4)C(=O)O)cc3)nc2)cc1 (stereo partly drawn) [Compound 561] | < 800
44 | CCCCCCCOc1ccc(-c2nnc(-c3ccc(C[C@H](NC(=O)c4ccc(C(C)(C)C)cc4)C(=O)N[C@H](C)C(=O)O)cc3)s2)cc1 [Compound 802] | 2500 to 5000
45 | CCCCCCCOc1ccc(-c2cnc(-c3ccc(C[C@H](NC(=O)c4ccc(Oc5ccccc5)cc4)C(=O)N[C@H](C)C(=O)O)cc3)nc2)cc1 [Compound 824] | < 800

Further lines, results first:

Row | EC50 [nM] | Structure (SMILES)
46 | < 800 | CCCc1ccc(C(=O)N[C@@H](Cc2ccc(-c3ncc(-c4ccc([C@H]5CC[C@H](CC)CC5)cc4)cn3)cc2)C(=O)N2CC(C(=O)O)C2)cc1 [Compound 1156]
47 | < 800 | C[C@@H](NC(=O)[C@H](Cc1ccc(-c2ncc(-c3ccc(-c4ccccc4F)cc3)cn2)cc1)NC(=O)c1ccc(C(C)(C)C)s1)C(=O)O [Compound 1133]
48 | < 800 | Cc1ccc(-c2ccc(-c3cnc(-c4ccc(C[C@H](NC(=O)c5ccc(C(C)(C)C)s5)C(=O)N5CC(C(=O)O)C5)cc4)nc3)c(F)c2)cc1Cl [Compound 1196]
49 | 2500 to 5000 | CCCCCCCOc1ccc(-c2cnc(-c3ccc(C[C@H](NC(=O)c4ccc(C(C)(C)C)cc4OCC)C(=O)N4CC(C(=O)O)C4)cc3)nc2)cc1 [Compound 1100]
50 | < 800 | CC[C@H]1CC[C@H](c2ccc(-c3cnc(-c4ccc(C[C@H](NC(=O)c5ccc(CC(C)C)s5)C(=O)N5CC(C(=O)O)C5)cc4)nc3)cc2)CC1 [Compound 1152]
51 | < 800 | CC[C@H]1CC[C@H](c2ccc(-c3cnc(-c4ccc(C[C@H](NC(=O)c5ccc(C(C)C)s5)C(=O)N5CC(C(=O)O)C5)cc4)nc3)cc2)CC1 [Compound 1167]

Source: patent US10034886B2, “GLP-1 receptor modulators” (Celgene International II SÀRL, priority 2014, dated 2018)
